Test results reported in US10675602B2, “Spray-drying process” (Bend Research, Inc., priority 2009, dated 2020).

Experiment: Room temperature solubility in methanol
Format: physicochemical
Settings: room temperature (20° C. to 30° C.)

CCC(=O)O[C@]1(C(=O)SCF)[C@H](C)C[C@H]2[C@@H]3C[C@H](F)C4=CC(=O)C=C[C@]4(C)[C@@]3(F)[C@@H](O)C[C@@]21C [Active Agent 1, S-(fluoromethyl) 6α,9-difluoro-11β,17-dihydroxy-16α-methyl-3-oxoandrosta-1,4-diene-17β-carbothioate, 17-propionate]
solubility in methanol: 0.3 wt %
